4 compounds from ChEMBL document CHEMBL1799992, “Substituent effect on the preferred DNA binding mode and affinity of a homologous series of naphthalene diimides” (Bioorg Med Chem Lett, 2011) can be followed below.

For test [1], the system named is Nucleic Acid. As to the kind of experiment: Binding affinity to calf thymus DNA assessed in MES00 buffer at pH 6.3 by isothermal titration calorimetry. Particulars: Bos taurus. The format is nucleic-acid assay.
Test [2] has as its system Nucleic Acid. Nature of the test: Displacement of ethidium bromide from calf thymus DNA assessed as fluorescence intensity per microL of compound at 7 x 10^-5 M after 3 mins. The class given is nucleic-acid assay. Particulars: Bos taurus.
For test [3], the system named is Nucleic Acid. As to the kind of experiment: Binding affinity to 20 mer GC-rich DNA in MES00 buffer at pH 6.3 by isothermal titration calorimetry. The class given is nucleic-acid assay. For orientation: Isothermal titration calorimetry measures the heat released or taken up as one component is titrated into another.
Test [4] has as its target T1, DNA topoisomerase 1 (Homo sapiens) (UniProt P11387).
T1 sequence (whole entry): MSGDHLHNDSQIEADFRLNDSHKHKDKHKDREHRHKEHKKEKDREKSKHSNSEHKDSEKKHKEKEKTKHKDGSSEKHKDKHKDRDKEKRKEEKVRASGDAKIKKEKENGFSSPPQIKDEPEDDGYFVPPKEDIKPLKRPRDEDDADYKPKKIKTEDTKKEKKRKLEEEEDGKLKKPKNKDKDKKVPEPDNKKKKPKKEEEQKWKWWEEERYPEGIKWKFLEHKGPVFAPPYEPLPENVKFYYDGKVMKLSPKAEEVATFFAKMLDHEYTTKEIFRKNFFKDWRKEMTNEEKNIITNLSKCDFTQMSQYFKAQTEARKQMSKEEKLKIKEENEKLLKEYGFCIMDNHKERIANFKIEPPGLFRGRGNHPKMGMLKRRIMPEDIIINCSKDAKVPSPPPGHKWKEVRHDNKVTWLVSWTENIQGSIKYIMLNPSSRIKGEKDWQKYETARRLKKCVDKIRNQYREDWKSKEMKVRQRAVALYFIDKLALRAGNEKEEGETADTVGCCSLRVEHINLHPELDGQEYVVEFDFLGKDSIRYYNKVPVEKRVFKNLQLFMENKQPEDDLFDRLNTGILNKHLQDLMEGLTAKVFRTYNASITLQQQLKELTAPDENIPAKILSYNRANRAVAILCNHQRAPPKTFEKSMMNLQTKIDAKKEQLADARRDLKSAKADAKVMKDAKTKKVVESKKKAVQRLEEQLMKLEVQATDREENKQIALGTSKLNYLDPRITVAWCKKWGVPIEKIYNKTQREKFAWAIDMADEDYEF
Nature of the test: Inhibition of human topoisomerase 1 assessed as minimum concentration required for complete re-supercoiling of pUC19 DNA after 1 hr using ethidium bromide staining by agarose gel electrophoresis.

The subject of test [5] is Nucleic Acid. As to the kind of experiment: Binding affinity to 20 mer AT-rich DNA in MES00 buffer at pH 6.3 by isothermal titration calorimetry. The format is nucleic-acid assay.
The subject of test [6] is Nucleic Acid. As to the kind of experiment: Binding affinity to calf thymus DNA assessed as low affinity binding constant in MES00 buffer at pH 6.3 by isothermal titration calorimetry. The format is nucleic-acid assay. Particulars: Bos taurus.
The subject of test [7] is Nucleic Acid. As to the kind of experiment: Selectivity ratio of binding constant K for AT-rich DNA to binding constant K for GC-rich DNA. The format is nucleic-acid assay.
The subject of test [8] is Nucleic Acid. As to the kind of experiment: Binding affinity to calf thymus DNA assessed as high affinity binding constant in MES00 buffer at pH 6.3 by isothermal titration calorimetry. The format is nucleic-acid assay. Particulars: Bos taurus.

As to `C[N+](C)(C)CN1C(=O)c2ccc3c4c(ccc(c24)C1=O)C(=O)N(C[N+](C)(C)C)C3=O`, the K in the test with Nucleic Acid [1] is 15 ×10⁶ /M; in the test with Nucleic Acid [3], 1.17 ×10⁶ /M; with Nucleic Acid [5] it was 1.11 ×10⁶ /M. In the test on Nucleic Acid [2], the Flu intensity was determined as 400. Moreover, the Activity in test [4] stood at 3.5 µM.
Turning to `CCCC[N+](C)(CCCC)CN1C(=O)c2ccc3c4c(ccc(c24)C1=O)C(=O)N(C[N+](C)(CCCC)CCCC)C3=O`, the Flu intensity in the test with Nucleic Acid [2] came out at 358. Further, the K was determined as 0.38 ×10⁶ /M in the test on Nucleic Acid [3], 3.9 ×10⁶ /M in the test with Nucleic Acid [6], 78 ×10⁶ /M in the test with Nucleic Acid [8] and 1.38 ×10⁶ /M in the test with Nucleic Acid [5]. Moreover, the Ratio in the test with Nucleic Acid [7] is 3.6. Moreover, the Activity in test [4] was over 6.7 µM.
As for `CCC[N+](C)(CCC)CN1C(=O)c2ccc3c4c(ccc(c24)C1=O)C(=O)N(C[N+](C)(CCC)CCC)C3=O`, the K was 0.24 ×10⁶ /M in the test on Nucleic Acid [3], 3 ×10⁶ /M in the test with Nucleic Acid [6], 43 ×10⁶ /M in the test with Nucleic Acid [8] and 0.73 ×10⁶ /M in the test with Nucleic Acid [5]. For the same compound, the Ratio in the test with Nucleic Acid [7] worked out at 3. Besides, the Activity in test [4] is 6.7 µM.
`CC[N+](C)(CC)CN1C(=O)c2ccc3c4c(ccc(c24)C1=O)C(=O)N(C[N+](C)(CC)CC)C3=O`: the K in the test on Nucleic Acid [3] amounted to 0.37 ×10⁶ /M; with Nucleic Acid [6], 3.6 ×10⁶ /M; with Nucleic Acid [8], 31 ×10⁶ /M; in the test on Nucleic Acid [5], 0.85 ×10⁶ /M. For the same compound, the Ratio with Nucleic Acid [7] came out at 2.3. In addition, in test [4], the Activity was 5.5 µM.
